Assay results: ChEMBL document CHEMBL1201862, “PubChem BioAssay data set” (2004)
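Five compound concentrations were applied to cells in 96-well plates for 48 hours; endpoints were derived by simple linear interpolation of the resulting dose-response curve. GI50 is the concentration that inhibits growth by half.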 Calls of active or inactive are those of the source. Cut-off read from the data, not from the text of the source: active = GI50 up to about 1.1 µM and inactive = higher.

Tests used:
Assay in all cases: growth of human tumour cells (NCI), 48 h
BT-549 = test system: BT-549
COLO 205 = test system: COLO 205
DU-145 = test system: DU-145
HCT-116 = test system: HCT-116
Hs-578T = test system: Hs-578T
K562 = test system: K562
KM12 = test system: KM12
M14 = test system: M14
MOLT-4 = test system: MOLT-4
OVCAR-5 = test system: OVCAR-5
OVCAR-8 = test system: OVCAR-8
PC-3 = test system: PC-3
RXF 393 = test system: RXF 393
SF-539 = test system: SF-539
SK-MEL-28 = test system: SK-MEL-28
SK-MEL-2 = test system: SK-MEL-2
SN12C = test system: SN12C
SNB-75 = test system: SNB-75
SW-620 = test system: SW-620
TK-10 = test system: TK-10

Measured: GI50

Clc1ccc2nc3[nH]nc(Cl)c3nc2c1
inactive: BT-549 28.4 µM | COLO 205 52.5 µM | DU-145 50.7 µM | HCT-116 42.9 µM | Hs-578T 22.7 µM | K562 52.4 µM | KM12 59.3 µM | M14 70.3 µM | MOLT-4 30.5 µM | OVCAR-5 48.1 µM | OVCAR-8 71.3 µM | PC-3 34.6 µM | RXF 393 35 µM | SF-539 40.8 µM | SK-MEL-28 84.7 µM | SK-MEL-2 40.6 µM | SN12C 38.5 µM | SNB-75 48.6 µM | SW-620 72.6 µM | TK-10 56.5 µM

Clc1ccc(/C=C/c2nc(Cl)c(-c3ccc(Cl)cc3)c(Cl)n2)cc1
inactive: BT-549 > 100 µM | COLO 205 > 100 µM | DU-145 76.4 µM | HCT-116 46.8 µM | Hs-578T > 100 µM | K562 32.1 µM | KM12 > 100 µM | M14 29.7 µM | MOLT-4 32.5 µM | OVCAR-5 > 100 µM | OVCAR-8 > 100 µM | PC-3 42.6 µM | RXF 393 53.8 µM | SF-539 57.7 µM | SK-MEL-28 > 100 µM | SK-MEL-2 25.6 µM | SN12C 89.9 µM | SNB-75 19.3 µM | SW-620 68.7 µM | TK-10 62.5 µM

COCn1cnc2c(=O)n(-c3ccc(C)cc3)c(=S)n(-c3ccc(C)cc3)c21
inactive: BT-549 > 100 µM | COLO 205 > 100 µM | DU-145 > 100 µM | HCT-116 > 100 µM | Hs-578T > 100 µM | K562 > 100 µM | KM12 > 100 µM | M14 > 100 µM | MOLT-4 > 100 µM | OVCAR-5 > 100 µM | OVCAR-8 > 100 µM | PC-3 > 100 µM | RXF 393 78.3 µM | SF-539 > 100 µM | SK-MEL-28 > 100 µM | SK-MEL-2 > 100 µM | SN12C > 100 µM | SNB-75 6.98 µM | SW-620 > 100 µM | TK-10 > 100 µM

CSc1c(C#N)c(N)nc2c(/N=N\c3ccc(Br)cc3)c(N)nn12
inactive: BT-549 12.4 µM | COLO 205 10 µM | DU-145 6.14 µM | HCT-116 6.34 µM | Hs-578T 2.37 µM | K562 2.75 µM | KM12 9.02 µM | M14 8.83 µM | MOLT-4 3.63 µM | OVCAR-5 16.6 µM | OVCAR-8 5.85 µM | PC-3 8.3 µM | RXF 393 7.57 µM | SF-539 9.18 µM | SK-MEL-28 10.7 µM | SK-MEL-2 4.48 µM | SN12C 6.65 µM | SNB-75 10.6 µM | SW-620 5.64 µM | TK-10 15 µM

Cc1ccnc(NC(NC(=O)c2ccccc2)(C(F)(F)F)C(F)(F)F)c1
inactive: BT-549 > 100 µM | COLO 205 > 100 µM | DU-145 > 100 µM | HCT-116 > 100 µM | Hs-578T > 100 µM | K562 > 100 µM | KM12 > 100 µM | M14 > 100 µM | MOLT-4 > 100 µM | OVCAR-5 > 100 µM | OVCAR-8 > 100 µM | PC-3 > 100 µM | RXF 393 > 100 µM | SF-539 > 100 µM | SK-MEL-28 > 100 µM | SK-MEL-2 > 100 µM | SN12C > 100 µM | SNB-75 > 100 µM | SW-620 > 100 µM | TK-10 > 100 µM
